# Reference: patent US20030232102A1, “Total glycosides of paeony, method to prepare the same and uses thereof” (priority 2001, published 2003)
# Read-outs that look alike come from different tables or passages of the source.
# Assays:
# synovial cells = test: IL-1, TNF and PGE2 produced by synovial cells of arthritis rats (Paeoniflorin R1); format: in vivo; details: 25 mg/kg from 12 days after inflammatory injection, sacrificed day 22; P<0.01
# Method: IL-1, TNF, and PGE2 Produced by Synovial Cells
# Paeoniflorin R1 treatment (25 mg/kg) started at 12 days after inflammatory injection, animal sacrificed on day 22.
# [1] = test system: abdominal cavity macrophage; test: H2O2, IL-1 and PGE2 produced by abdominal cavity macrophage of arthritis rats (Paeoniflorin R1); format: in vivo; details: 25 mg/kg from 7 days after inflammatory injection, sacrificed day 17; FIG. 44
# Method: Amount of H2O2, IL-1, and PGE2 produced by abdominal cavity macrophage: Use 5 rats in each group, paeoniflorin R1 (25 mg/kg) treatment starts 7 days after inflammatory injection, animal sacrificed on day 17.
# [2] = test system: Wistar rats, Model of Arthritis (BCG vaccine); test: Primary inflammation: degree of swelling of injected feet, BCG vaccine arthritis model; format: in vivo
# Method: (§1) Animal: Wistar rats, 2-3 months, 180±30 g.
# (§2) Chemical agents: Paeoniflorin R1, Lobenzarit disodium (CCA), Indomethacin (IM), and BCG vaccine
# (§3) Model of Arthritis: inject 0.1 ml of 10 mg BCG vaccine to the right hind foot, bottom side, intracutaneously.
# Primary inflammation: Degree of swelling of injected feet (primary inflammation): oral treatment was given 30 minutes before the inflammatory injection (BCG vaccine). The degree of swelling was measured 1, 3, 5, and 7 days after the injection.
# Oral administration of Paeoniflorin R1 30˜60 minutes before inflammatory injection.
# TGP's influence on degree of swelling of injected feet (primary inflammation)
# [3] = test system: sub-group T cell in peripheral circulation; test: Sub-group T cell (Th/Ts) in peripheral circulation of arthritis rats (Paeoniflorin R1); format: in vivo; details: 25 mg/kg from 18 days after inflammatory injection, sacrificed day 26; P<0.01; FIG. 45
# Method: Sub-Group T Cell in Peripheral Circulation
# Paeoniflorin R1 treatment (25 mg/kg) started at 18 days after inflammatory injection, animal sacrificed on day 26.
# [4] = test system: Wistar rats, Model of Arthritis (BCG vaccine); test: Secondary inflammation: swelling of opposite non-injected feet and thymus weight, BCG vaccine arthritis model; format: in vivo; details: for Degree of Swelling Day 12 / Degree of Swelling Day 16 / Degree of Swelling Day 20 / Degree of Swelling Day 24 / Degree of Swelling Day 28: non-injected feet
# Method: as §1, §2, §3
# Secondary inflammation: Swelling degree of the opposite non-injected feet (secondary inflammation): oral treatment was given 12-28 days after the inflammatory injection. The degree of swelling was measured 12, 16, 20, 24 and 28 days after the injection.
# Groups of animals for secondary inflammation: 6 groups, each contains 6 rats, groups are: 1) Normal control, receive no inflammatory injection and any pre treatment; 2) Negative control, receive inflammatory injection and no treatment; 3) Positive control, receive inflammatory injection and CCA treatment; 4) Paeoniflorin R1 groups (5, 25, 50 mg/kg/d) oral administration of Paeoniflorin R1 30˜60 minutes before inflammatory injection.
# TGP's influence on degree of swelling of opposite, non-injected feet (secondary inflammation)
# [5] = test system: abdominal cavity macrophage; test: Kinemics of abdominal cavity macrophage PGE2 release in arthritis rats (Paeoniflorin R1); format: in vivo; details: treatment from 1st day after inflammatory injection, sacrificed day 7, 14, 21, 28; FIG. 46
# From the text: Kinemics in Abdominal Cavity Macrophage Release PGE2
# Paeoniflorin R1 treatment started the 1st day after inflammatory injection, animal sacrificed on day 7, 14, 21, and 28.
# [6] = test system: histidine-requiring salmonell typhimurrium mutants TA 97, TA 98, Ta 100 and TA 102; details: +S9, 2-AF 10 μg/plate
# Method: That was a parallel test between two groups of plates with or without the mixture of S9.
# Each course was to be performed twice for three plates of different concentrations. Positive indicators and solvent control were included within all courses. Courses were performed with a ‘pre-incubation’ method, and the final result comes out in average from total six values.
# [7] = test system: Sprage-Dawley (SD) rats, adjuvant arthritis; test: Adjuvant arthritis in rats (FCA): secondary inflammation, non-injected foot, thymus, pathology; format: in vivo
# [8] = test system: Sprage-Dawley (SD) rats, adjuvant arthritis; test: Adjuvant arthritis in rats (FCA): primary inflammation, injected foot; format: in vivo
# ICR mice [9] = test: Enhanced delayed type hypersensitivity (DTH) reaction of mice induced by cyclophosphamide; format: in vivo; details: Cy + Solvent, Cy 250 mg/kg i.p. at d-3
# Method: Cyclophosphamide was administered 3 days before (d-3) the first day sensitization (enhanced DTH model).
# [10] = test system: mice, IgM in the spleen cells; test: Weakened IgM formation of mice induced by cyclophosphamide; format: in vivo; details: Cy + solvent, Cy 125 mg/kg i.p. at d-3
# Method: All groups of mice were sensitized with 0.2 ml 10% SRBC suspension i.p., mice were also administered 125 mg/kg of cyclophosphamide 3 days before the sensitization to make up the models of weakened immunoreactions. […] The mice were killed on the fifth day, organs of spleens and thymus were weighted and quantity of IgM in the spleen cells examined.
# [11] = test system: Chinese hamaster lung fibroblast (CHL) cells; format: cell-based
# Method: TGP, was dissolved in methyl-sulfoxide.
# With method of Ishidate (1981), cells were collected in 24 and 48 hours for S9− groups and 24 hours for S9+. All assays were performed twice and their average was taken for final results.
# [12] = test system: mice, IgM in the spleen cells; test: Enhanced IgM formation of mice induced by cyclophosphamide (spleen cell transfer); format: in vivo; details: group C: donor mice SOI + Cy + solvent, Cy 100 mg/kg i.p.
# From the text: See table 49 and table 50 for grouping and test procedures: spleen cells of donor mice are transferred to acceptor mice. And, SRBC (4×10^8/mouse i.p.) are given to the acceptor mice for additional immune enhancement. Acceptors are killed on the fifth day of transference and examined for the quantity of IgM in the spleen cells.
# ICR mice [13] = details: CTX 80 mg/kg
# Method: ICR mice of sexual maturity, all males. Six random groups with eight mice in each one.
# With a gradient of 4:1, the four concentrations were set at 2500 mg/kg, 625 mg/kg, […] and 39 mg/kg.
# The drug was administered by gastric injection at the above doses together with the positive indicator (Cytoxan) and the solvent control. The course was repeated after 24 hours and animals were killed six hours after the second administration. Samples were taken and examined.
# pregnant Wistar rats = test: Test of teratogenesis in pregnant rats; format: in vivo; details: 250 mg/kg
# Method: Ninety pregnant Wistar rats were numbered by their date of fertilization and randomly divided into five groups. The other two were for the control groups.
# A positive and a negative control groups were also set up, rats were given acetosalicylic acid (250 mg/kg) in the positive group and distilled water of the same volume in the negative group.
# The positive control group was treated with the acetosalicylic acid from day 9 to 11. Both were by gastric injection.
# The body weight of rats in all groups was taken once every three days, and the amount of drugs were adjusted individually after the body weight. Rats were killed at day 20 of pregnancy, wombs and embryos were extracted by cesarean section, which was for the study and examination in a traditional way.
# [14] = S9+, CP (60.0 μg/ml, 24, by row order of Table 43)
compound,measurement,setting,value
"2-hydroxy-3 Methyl-Glucoside-4-Oxo-7-Carbonyl-Tricyclo [3,2,2,0^1,2]-Nonanyl-Benzoicmethoxycarbonyl [Paeoniflorin R1]","IL-1, TNF, and PGE2 produced by synovial cells (result worded as Th/Ts)",synovial cells,can improve Th/Ts
same,"Amount of H2O2, IL-1, and PGE2 produced by abdominal cavity macrophage",[1],can decrease the above reaction
same,Degree of Swelling Day 1,[2]; 25 mg/kg/d oral,0.59
same,Degree of Swelling Day 3,[2]; 25 mg/kg/d oral,0.81
same,Degree of Swelling Day 5,[2]; 25 mg/kg/d oral,0.50
same,Degree of Swelling Day 7,[2]; 25 mg/kg/d oral,0.40
same,Th/Ts in peripheral circulation,[3],can improve Th/Ts
same,W. of Thymus Glands,[4]; 5 mg/kg/d oral,16.3 mg/kg body W.
same,W. of Thymus Glands,[4]; 25 mg/kg/d oral,19.4 mg/kg body W.
same,W. of Thymus Glands,[4]; 50 mg/kg/d oral,13.9 mg/kg body W.
same,Degree of Swelling Day 12,[4]; 5 mg/kg/d oral,0.35
same,Degree of Swelling Day 16,[4]; 5 mg/kg/d oral,0.42
same,Degree of Swelling Day 20,[4]; 5 mg/kg/d oral,0.33
same,Degree of Swelling Day 24,[4]; 5 mg/kg/d oral,0.25
same,Degree of Swelling Day 28,[4]; 5 mg/kg/d oral,0.26
same,Degree of Swelling Day 12,[4]; 25 mg/kg/d oral,0.41±
same,Degree of Swelling Day 16,[4]; 25 mg/kg/d oral,0.39
same,Degree of Swelling Day 20,[4]; 25 mg/kg/d oral,0.20
same,Degree of Swelling Day 24,[4]; 25 mg/kg/d oral,0.15
same,Degree of Swelling Day 28,[4]; 25 mg/kg/d oral,0.23
same,Degree of Swelling Day 12,[4]; 50 mg/kg/d oral,0.40
same,Degree of Swelling Day 16,[4]; 50 mg/kg/d oral,0.39
same,Degree of Swelling Day 20,[4]; 50 mg/kg/d oral,0.30
same,Degree of Swelling Day 24,[4]; 50 mg/kg/d oral,0.27
same,Degree of Swelling Day 28,[4]; 50 mg/kg/d oral,0.24
same,abdominal cavity macrophage PGE2 release,[5],effective in PGE2 release
Nc1ccc2c(c1)Cc1ccccc1-2 [2-AF],"reverting colonies, AT 97",[6],598 ± 27.4
same,"reverting colonies, AT 98",[6],974 ± 30.7
same,"reverting colonies, AT 100",[6],772 ± 29.8
"O=C(O)c1ccccc1Nc1cc(Cl)ccc1C(=O)O [CCA, Lobenzarit disodium]",weight of thymus,"[7]; AA rats, gastric infusion d12 through d20",the weight of their thymus are gained
same,joint swelling,"[7]; AA rats, gastric infusion d12 through d20, all three doses of TGP, one dose CCA",certain improvements in joint swelling
same,weight of thymus,[7]; CCA 50 mg/kgd,14.3 ± 3.9
same,"Degree of Swelling, non-injected foot","[7]; d20, CCA 50 mg/kgd",0.41 ± 0.22 mL
same,"Degree of Swelling, non-injected foot","[7]; d24, CCA 50 mg/kgd",0.14 ± 0.15 mL
same,"Degree of Swelling, non-injected foot","[7]; d28, CCA 50 mg/kgd",0.05 ± 0.02 mL
same,Degree of Swelling Day 1,[2]; 50 mg/kg/d oral,0.65
same,Degree of Swelling Day 3,[2]; 50 mg/kg/d oral,0.96
same,Degree of Swelling Day 5,[2]; 50 mg/kg/d oral,0.68
same,Degree of Swelling Day 7,[2]; 50 mg/kg/d oral,0.65
same,"Degree of swelling, injected foot","[8]; d3, CCA 50 mg/kgd",0.94 ± 0.17
same,"Degree of swelling, injected foot","[8]; d5, CCA 50 mg/kgd",0.67 ± 0.18
same,"Degree of swelling, injected foot","[8]; d7, CCA 50 mg/kgd",0.63 ± 0.18
same,W. of Thymus Glands,[4]; 50 mg/kg/d oral,14.4 mg/kg body W.
same,Degree of Swelling Day 12,[4]; 50 mg/kg/d oral,0.40
same,Degree of Swelling Day 16,[4]; 50 mg/kg/d oral,0.55
same,Degree of Swelling Day 20,[4]; 50 mg/kg/d oral,0.42
same,Degree of Swelling Day 24,[4]; 50 mg/kg/d oral,0.14
same,Degree of Swelling Day 28,[4]; 50 mg/kg/d oral,0.05
"O=P1(N(CCCl)CCCl)NCCCO1 (centres unmarked) [CP, Cyclophosphamide]",Degree of ear swelling,ICR mice [9],28.1 ± 7.2
same,Quantity of Ig M (A value),[10],0.41 ± 0.10
same,Weight of Spleen,[10],56.6 +11.5
same,weight of thymus,[10],6.2 ± 4.7
same,Result of chromosome aberration test,"[11]; CP (15 μg/ml, 48, by row order of Table 43)",+ +
same,Result of chromosome aberration test,"[11]; CP (60.0 μg/ml, 24, by row order of Table 43)",+ +
same,Deformation (types),[11]; [14],"g, p, b, r, t, f"
same,Deformation Rate,[11]; [14],44.0%
same,Deformation Rate,"[11]; S9−, CP 15 μg/ml, incubation 48",34.5%
same,"Ig M (A), acceptor mice",[12],0.53 ± 0.03^ΔΔ
same,Rate of inhibition,[12],24.3
"O=P1(N(CCCl)CCCl)NCCCO1 (centres unmarked) [CTX, Cytoxan]",MPCE % ± SD,ICR mice [13],41.37 ± 10.29%
"COc1ccc2c(c1)c(CC(=O)O)c(C)n2C(=O)c1ccc(Cl)cc1 [IM, Indomethacin]",Degree of Swelling Day 1,[2]; 2 mg/kg/d oral,0.52
same,Degree of Swelling Day 3,[2]; 2 mg/kg/d oral,0.57
same,Degree of Swelling Day 5,[2]; 2 mg/kg/d oral,0.34
same,Degree of Swelling Day 7,[2]; 2 mg/kg/d oral,0.30
same,abdominal cavity macrophage PGE2 release,[5],effective in PGE2 release
"CO[C@@]12[C@H](COC(N)=O)C3=C(C(=O)C(C)=C(N)C3=O)N1C[C@@H]1N[C@@H]12 [MMC, Mitomycin C]",Deformation (types),[11],"g, b, p, t, f"
same,Deformation Rate,[11],79.5%
CC(=O)Oc1ccccc1C(=O)O [acetosalicylic acid],"malformation in appearance (harelip, split tongue, short body, abnormal limbs)",pregnant Wistar rats,4.4%
same,deformity rate in skeletal system,pregnant Wistar rats; P<0.01,69.5%
same,growth of embryo rats vs negative control,pregnant Wistar rats; P<0.01 and P<0.05,showed differences in the body weight and length of embryos
same,"absorptive embryo rate, dead embryo rate, survival rate vs negative control","pregnant Wistar rats; day 9 to 11, P<0.01","much higher absorptive embryo rate, and dead embryo rate, and lower survival rate"
